According to BigSolDB 2.1:

Nc1ccc(S(=O)(=O)Nc2ncccn2)cc1
solubility (mole fraction)
Settings	293.15 K	298.15 K	303.15 K	308.15 K	313.15 K
in ethanol	6.26e-06	7.74e-06	9.46e-06	1.17e-05	1.38e-05
in water	3.8e-07	4.81e-07	6.49e-07	8.7e-07	1.14e-06
